# From US5530126A, “Process for the preparation of substituted 6-(pyrazol-3yl)-1,4-benzoxazin-3-ones” (Monsanto Company, priority 1994, dated 1996)
# Columns and labels:
# Type in all cases: in vivo
# [1] = tested on: Barnyardgrass; assay: Pre-emergence herbicide test; conditions: Echinochloa crus-galli, read-out: % plant inhibition (Bygr); for inhibition at 11210 g/ha: 11.21 kg/ha; for inhibition at 1120 g/ha: 1.12 kg/ha
# How it was run: (§1)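 Readout: % inhibition per species, observed ~10-14 d after seeding and treatment. Treatment: known amount of active in acetone or water onto seed bed, covered with untreated soil; greenhouse, watered from below.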
# [2] = tested on: Seedling johnsongrass; assay: Pre-emergence herbicide test; conditions: Sorghum halepense, read-out: % plant inhibition (Sejg); for inhibition at 11210 g/ha: 11.21 kg/ha; for inhibition at 1120 g/ha: 1.12 kg/ha
# How it was run: as §1
# [3] = tested on: Downy Brome; assay: Pre-emergence herbicide test; conditions: Bromus tectorum, read-out: % plant inhibition (Dobr); for inhibition at 11210 g/ha: 11.21 kg/ha; for inhibition at 1120 g/ha: 1.12 kg/ha
# How it was run: as §1
# [4] = tested on: Morningglory; assay: Pre-emergence herbicide test; conditions: Ipomoea, read-out: % plant inhibition (Mogl); for inhibition at 11210 g/ha: 11.21 kg/ha; for inhibition at 1120 g/ha: 1.12 kg/ha
# How it was run: as §1
# [5] = tested on: Indian Mustard; assay: Pre-emergence herbicide test; conditions: Brassica juncea, read-out: % plant inhibition (Inmu); for inhibition at 11210 g/ha: 11.21 kg/ha; for inhibition at 1120 g/ha: 1.12 kg/ha
# How it was run: as §1
# [6] = tested on: Cocklebur; assay: Pre-emergence herbicide test; conditions: Xanthium strumarium, read-out: % plant inhibition (Cobu); for inhibition at 11210 g/ha: 11.21 kg/ha; for inhibition at 1120 g/ha: 1.12 kg/ha
# How it was run: as §1
# [7] = tested on: Wild buckwheat; assay: Pre-emergence herbicide test; conditions: Fallopia convolvulus, read-out: % plant inhibition (Wibw); for inhibition at 11210 g/ha: 11.21 kg/ha; for inhibition at 1120 g/ha: 1.12 kg/ha
# How it was run: as §1
# [8] = tested on: Yellow nutsedge; assay: Pre-emergence herbicide test; conditions: Cyperus, read-out: % plant inhibition (Yens); for inhibition at 11210 g/ha: 11.21 kg/ha; for inhibition at 1120 g/ha: 1.12 kg/ha
# How it was run: as §1
# [9] = tested on: Velvetleaf; assay: Pre-emergence herbicide test; conditions: Abutilon theophrasti, read-out: % plant inhibition (Vele); for inhibition at 11210 g/ha: 11.21 kg/ha; for inhibition at 1120 g/ha: 1.12 kg/ha
# How it was run: as §1
# [10] = tested on: Annual bluegrass; assay: Pre-emergence herbicide test; conditions: read-out: % plant inhibition (Anbg); for inhibition at 11210 g/ha: 11.21 kg/ha; for inhibition at 1120 g/ha: 1.12 kg/ha
# How it was run: as §1
# [11] = tested on: Barnyardgrass; assay: Post-emergence herbicide test; conditions: Echinochloa crus-galli, read-out: % plant inhibition (Bygr); for inhibition at 11210 g/ha: 11.21 kg/ha; for inhibition at 1120 g/ha: 1.12 kg/ha
# How it was run: (§2)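 Seeds or propagules are pressed into compacted topsoil, covered and sub-irrigated in the greenhouse. At two to three weeks the plants are atomizer-sprayed (170.3 kPa, 1870 L/Ha, ~0.4% emulsifier by volume). Percent inhibition relative to control is observed about 10–14 days later.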
# [12] = tested on: Seedling johnsongrass; assay: Post-emergence herbicide test; conditions: Sorghum halepense, read-out: % plant inhibition (Sejg); for inhibition at 11210 g/ha: 11.21 kg/ha; for inhibition at 1120 g/ha: 1.12 kg/ha
# How it was run: as §2
# [13] = tested on: Downy Brome; assay: Post-emergence herbicide test; conditions: Bromus tectorum, read-out: % plant inhibition (Dobr); for inhibition at 11210 g/ha: 11.21 kg/ha; for inhibition at 1120 g/ha: 1.12 kg/ha
# How it was run: as §2
# [14] = tested on: Morningglory; assay: Post-emergence herbicide test; conditions: Ipomoea, read-out: % plant inhibition (Mogl); for inhibition at 11210 g/ha: 11.21 kg/ha; for inhibition at 1120 g/ha: 1.12 kg/ha
# How it was run: as §2
# [15] = tested on: Indian Mustard; assay: Post-emergence herbicide test; conditions: Brassica juncea, read-out: % plant inhibition (Inmu); for inhibition at 11210 g/ha: 11.21 kg/ha; for inhibition at 1120 g/ha: 1.12 kg/ha
# How it was run: as §2
# [16] = tested on: Cocklebur; assay: Post-emergence herbicide test; conditions: Xanthium strumarium, read-out: % plant inhibition (Cobu); for inhibition at 11210 g/ha: 11.21 kg/ha; for inhibition at 1120 g/ha: 1.12 kg/ha
# How it was run: as §2
# [17] = tested on: Wild buckwheat; assay: Post-emergence herbicide test; conditions: Fallopia convolvulus, read-out: % plant inhibition (Wibw); for inhibition at 11210 g/ha: 11.21 kg/ha; for inhibition at 1120 g/ha: 1.12 kg/ha
# How it was run: as §2
# [18] = tested on: Yellow nutsedge; assay: Post-emergence herbicide test; conditions: Cyperus, read-out: % plant inhibition (Yens); for inhibition at 11210 g/ha: 11.21 kg/ha; for inhibition at 1120 g/ha: 1.12 kg/ha
# How it was run: as §2
# [19] = tested on: Velvetleaf; assay: Post-emergence herbicide test; conditions: Abutilon theophrasti, read-out: % plant inhibition (Vele); for inhibition at 11210 g/ha: 11.21 kg/ha; for inhibition at 1120 g/ha: 1.12 kg/ha
# How it was run: as §2
# [20] = tested on: Annual bluegrass; assay: Post-emergence herbicide test; conditions: read-out: % plant inhibition (Anbg); for inhibition at 11210 g/ha: 11.21 kg/ha; for inhibition at 1120 g/ha: 1.12 kg/ha
# How it was run: as §2
Structure (SMILES),inhibition at 1120 g/ha [1] [%],inhibition at 1120 g/ha [2] [%],inhibition at 1120 g/ha [3] [%],inhibition at 1120 g/ha [4] [%],inhibition at 1120 g/ha [5] [%],inhibition at 1120 g/ha [6] [%],inhibition at 1120 g/ha [7] [%],inhibition at 1120 g/ha [8] [%],inhibition at 1120 g/ha [9] [%],inhibition at 1120 g/ha [10] [%],inhibition at 1120 g/ha [11] [%],inhibition at 1120 g/ha [12] [%],inhibition at 1120 g/ha [13] [%],inhibition at 1120 g/ha [14] [%],inhibition at 1120 g/ha [15] [%],inhibition at 1120 g/ha [16] [%],inhibition at 1120 g/ha [17] [%],inhibition at 1120 g/ha [18] [%],inhibition at 1120 g/ha [19] [%],inhibition at 1120 g/ha [20] [%],further results
CCS(=O)(=O)N(c1cc(-c2nn(C)c(C(F)(F)F)c2Cl)c(Cl)cc1Cl)S(=O)(=O)CC [Compound 90],–,–,–,–,–,–,–,–,–,–,–,–,–,–,–,–,–,–,–,–,inhibition at 11210 g/ha [1]: 10%; inhibition at 11210 g/ha [2]: 50%; inhibition at 11210 g/ha [3]: 10%; inhibition at 11210 g/ha [4]: 10%; inhibition at 11210 g/ha [5]: 10%; inhibition at 11210 g/ha [6]: 0%; inhibition at 11210 g/ha [7]: 30%; inhibition at 11210 g/ha [8]: 0%; inhibition at 11210 g/ha [9]: 20%; inhibition at 11210 g/ha [10]: 10%; inhibition at 11210 g/ha [11]: 0%; inhibition at 11210 g/ha [12]: 0%; inhibition at 11210 g/ha [13]: 10%; inhibition at 11210 g/ha [14]: 60%; inhibition at 11210 g/ha [15]: 50%; inhibition at 11210 g/ha [16]: 30%; inhibition at 11210 g/ha [17]: 50%; inhibition at 11210 g/ha [18]: 0%; inhibition at 11210 g/ha [19]: 100%; inhibition at 11210 g/ha [20]: 10%
Cn1nc(-c2cc(NS(C)(=O)=O)c(Cl)cc2Cl)c(Cl)c1C(F)(F)F [Compound 91],0,0,0,90,90,20,70,0,100,0,30,40,40,60,50,100,80,10,40,50,–
CCS(=O)(=O)Nc1cc(-c2nn(C)c(C(F)(F)F)c2Cl)c(Cl)cc1Cl [Compound 92],0,0,0,80,20,20,80,0,90,0,30,40,50,100,80,80,80,20,100,30,–
Cn1nc(-c2cc(S)c(Cl)cc2Cl)c(Cl)c1C(F)(F)F [Compound 93],0,0,0,30,10,20,20,0,20,0,70,40,50,60,60,70,90,0,90,10,–
COc1cc(-c2nn(C)c(C(F)(F)F)c2Cl)c(F)cc1Br [Compound 94],100,100,100,90,100,60,100,20,100,100,100,90,100,90,80,80,100,10,100,90,–
Cn1nc(-c2cc(O)c(Br)cc2F)c(Cl)c1C(F)(F)F [Compound 95],50,50,20,40,80,20,100,20,90,30,80,50,40,80,70,100,100,10,100,60,–
C#CCOc1cc(-c2nn(C)c(C(F)(F)F)c2Cl)c(F)cc1Br [Compound 96],80,90,100,100,100,60,100,20,100,100,100,100,100,100,100,90,100,40,100,100,–
CCOC(=O)C(C)Oc1cc(-c2nn(C)c(C(F)(F)F)c2Cl)c(F)cc1Br (centres unmarked) [Compound 97],50,50,80,40,90,90,100,20,100,80,100,60,90,90,100,100,100,50,100,70,–
Cn1nc(-c2cc(C3=NCCO3)c(Cl)cc2F)c(Cl)c1C(F)(F)F [Compound 98],30,70,60,80,70,20,60,0,90,0,80,90,90,100,80,100,50,0,100,70,–
Cn1nc(-c2cc(N3CCOCC3)c(Cl)cc2F)c(Cl)c1C(F)(F)F [Compound 99],–,–,–,–,–,–,–,–,–,–,–,–,–,–,–,–,–,–,–,–,inhibition at 11210 g/ha [1]: 90%; inhibition at 11210 g/ha [2]: 90%; inhibition at 11210 g/ha [3]: 100%; inhibition at 11210 g/ha [4]: 90%; inhibition at 11210 g/ha [5]: 100%; inhibition at 11210 g/ha [6]: 80%; inhibition at 11210 g/ha [7]: 100%; inhibition at 11210 g/ha [8]: 30%; inhibition at 11210 g/ha [9]: 100%; inhibition at 11210 g/ha [10]: 80%; inhibition at 11210 g/ha [11]: 100%; inhibition at 11210 g/ha [12]: 100%; inhibition at 11210 g/ha [13]: 90%; inhibition at 11210 g/ha [14]: 100%; inhibition at 11210 g/ha [15]: 100%; inhibition at 11210 g/ha [16]: 90%; inhibition at 11210 g/ha [17]: 100%; inhibition at 11210 g/ha [18]: 10%; inhibition at 11210 g/ha [19]: 100%; inhibition at 11210 g/ha [20]: 100%
